Results published in US9206162B2, “Triazole compounds that modulate Hsp90 activity” (Synta Pharmaceuticals Corp., priority 2006, dated 2015).

Columns and labels:
[1] = system: Her2; test: Degradation of Her2 in BT-474 cells, Method 1 (Western blot); type: cell-based, human; details: 0.5 μM, overnight
Experimental: A. Cells and Cell Culture Human high-Her2 breast carcinoma BT474 (HTB-20), SK-BR-3 (HTB-30) and MCF-7 breast carcinoma (HTB-22) from American Type Culture Collection, VA, USA were grown in Dulbecco's modified Eagle's medium with 4 mM L-glutamine and antibiotics ([…] penicillin and 100 ug/ml streptomycine; GibcoBRL). To obtain exponential cell growth, cells were trypsinized, counted and seeded at a cell density of 0.5×10^6 cells/ml regularly, every 3 days. All experiments were performed on day 1 after cell passage. B. Degradation of her2 in Cells after Treatment with a Compound of the Invention
BT-474 cells are treated with 0.5 μM, 2 μM, or 5 μM of 17AAG (a positive control) or 0.5 μM, 2 μM, or 5 μM of a compound of the invention overnight in DMEM medium. After treatment, each cytoplasmic sample is prepared from 1×10^6 cells by incubation of cell lysis buffer (#9803, cell Signaling Technology) on ice for 10 minutes. The resulting supernatant used as the cytosol fractions is dissolved with sample buffer for SDS-PAGE and run on a SDS-PAGE gel, blotted onto a nitrocellulose membrane by using semi-dry transfer. Non-specific binding to nitrocellulose is blocked with 5% skim milk in TBS with 0.5% Tween at room temperature for 1 hour, then probed with anti-Her2/ErB2 mAb (rabbit IgG, #2242, Cell Signaling) and anti-Tubulin (T9026, Sigma) as housekeeping control protein. […]

[2] = system: Hsp90; test: Degradation of Hsp90 client proteins, Method 2: IC50 for Her2 degradation / inhibition of Hsp90 (MV-4-11 cell survival, Cell Counting Kit-8); type: cell-based, human; details: Table 9, MV-4-11 cells, 72 hours, read-out: IC50 Range

For C=CCNC1=C2C[C@@H](C)C[C@H](OC)[C@H](O)[C@@H](C)/C=C(\C)[C@H](OC(N)=O)[C@@H](OC)/C=C\C=C(/C)C(=O)NC(=CC1=O)C2=O [Compound 17AAG, 17-allylamino-17-demethoxygeldanamycin], the “degradation of Her2” value [1] was “partial degradation”.

With COCCN(C)c1ccc(-n2c(O)nnc2-c2cc(C(C)C)c(O)cc2O)c[n+]1[O-] [Compound 3d] the IC50 [2] was 180 nM.
